Experimental findings from US7964624B1, “Inhibitors of serine proteases” (priority 2005, dated 2011) are described below.

One test has as its target T1, HCV NS3 protease domain (Hepatitis C virus genotype 1b, UniProt Q9WMX2).
T1 construct: The first 181 amino acids of NS3 (residues 1027-1207 of the viral polyprotein); hexa-histidine (C); made in house; host or cells: E. coli BL21/DE3 pLysS
Nature of the test: biochemical. The note with it: Enzyme Assay 1 (HCV NS3 Protease Domain Peptide Cleavage Assay) activity, apparent Ki class.

The target of test [1] is T2, full-length hepatitis C viral protein NS3•4A (Hepatitis C virus genotype 1a, UniProt P27958).
T2 construct: hexa-histidine (N); made in house; host or cells: Sf9 insect cells (baculovirus, pVL1392)
Nature of the test: biochemical. Details: species or system HCV sub-type strain 1a. The following applies: Enzyme Assay 2 (HCV NS3 Peptide Cleavage Assay) activity, apparent Ki class.

Take `CCC[C@H](NC(=O)[C@@H]1C[C@]2(CC(c3cccc(Cl)c3)=NO2)CN1C(=O)[C@@H](NC(=O)CC1CCN(C(C)=O)CC1)C(C)(C)C)C(=O)C(=O)NC1CC1` [Compound 304]: the Ki on HCV NS3 protease domain is 100 to 500 nM; in test [1], less than 100 nM.
On to `CCC[C@H](NC(=O)[C@@H]1C[C@]2(CC(c3cccc(Cl)c3)=NO2)CN1C(=O)[C@@H](NC(=O)CC1CCCCC1)C(C)(C)C)C(=O)C(=O)N(C)CC` [Compound 182], for which the Ki (on HCV NS3 protease domain; in test [1]) was more than 500 nM in each case.
Take `CCC[C@H](NC(=O)[C@@H]1C[C@]2(CC(CC)=NO2)CN1C(=O)[C@@H](NC(=O)CC1CCOCC1)C(C)(C)C)C(=O)C(=O)NC1CC1` [Compound 566]: the Ki (on HCV NS3 protease domain; in test [1]) was more than 500 nM throughout.
For the compound `CCC[C@H](NC(=O)[C@@H]1C[C@]2(CC(c3cnc(OC)c(Cl)c3)=NO2)CN1C(=O)[C@@H](NC(=O)CC1CCCCC1)C(C)(C)C)C(=O)C(=O)NC1CC1` [Compound 312], the Ki (at HCV NS3 protease domain; in test [1]) was less than 100 nM each time.
With `C=C[C@@H]1C[C@]1(NC(=O)[C@@H]1C[C@]2(CC(c3cccc(Cl)c3)=NO2)CN1C(=O)[C@@H](NC(=O)OC1CCOC1)C(C)(C)C)C(=O)NS(=O)(=O)C1CC1` (some centres unmarked) [Compound 45], the Ki on HCV NS3 protease domain was more than 500 nM; in test [1], 100 to 500 nM.
With `CCC[C@H](NC(=O)[C@@H]1C[C@]2(CC(c3cccnc3OC)=NO2)CN1C(=O)[C@@H](NC(=O)CC1CCCCC1)C(C)(C)C)C(=O)C(=O)NC1CC1` [Compound 469], the Ki at HCV NS3 protease domain is more than 500 nM; in test [1], 100 to 500 nM.
For the compound `CCC[C@H](NC(=O)[C@@H]1C[C@]2(CC(c3csc(Cl)c3)=NO2)CN1C(=O)[C@@H](NC(=O)CC1CCCCC1)C(C)(C)C)C(=O)C(=O)NC1CC1` [Compound 62], the Ki (at HCV NS3 protease domain; in test [1]) was 100 to 500 nM each time.
For the compound `CCC[C@H](NC(=O)[C@@H]1C[C@]2(CC(c3cccc(Cl)c3)=NO2)CN1C(=O)[C@H](Cc1ccc(OC)cc1)NC(=O)CC1CCCCC1)C(=O)C(=O)NC1CC1` [Compound 213], the Ki (at HCV NS3 protease domain; in test [1]) was more than 500 nM throughout.
For `CCC[C@H](NC(=O)[C@@H]1C[C@]2(CC(c3cccc(Cl)c3)=NO2)CN1C(=O)[C@H](Cc1ccccc1C(F)(F)F)NC(=O)CC1CCCCC1)C(=O)C(=O)NC1CC1` [Compound 289], the values for the Ki (on HCV NS3 protease domain; in test [1]) were more than 500 nM and 100 to 500 nM, respectively.
With `CCC[C@H](NC(=O)[C@@H]1C[C@]2(CC(c3cccc(Cl)c3)=NO2)CN1C(=O)[C@@H](Nc1ccccc1)C(C)(C)C)C(=O)C(=O)NC1CC1` [Compound 172], the figures for the Ki (on HCV NS3 protease domain; in test [1]) were more than 500 nM and 100 to 500 nM, respectively.
Turning to `CCC[C@H](NC(=O)[C@@H]1C[C@]2(CC(c3cccc(Cl)c3)=NO2)CN1C(=O)[C@@H](NC(=O)CC1CCCCC1)C(C)(C)C)C(=O)C(=O)NCCc1cccnc1` [Compound 447], the Ki is more than 500 nM at HCV NS3 protease domain and 100 to 500 nM in test [1].
In the same order, the values of `CCC[C@H](NC(=O)[C@@H]1C[C@]2(CC(c3cccc(Cl)c3)=NO2)CN1C(=O)[C@@H](NC(=O)CC1CCCCC1)C(C)(C)C)C(=O)C(=O)N1CCC[C@@H]1COC` [Compound 347] are more than 500 nM and more than 500 nM.
For `CCC[C@H](NC(=O)[C@@H]1C[C@]2(CC(c3cccc(Cl)c3)=NO2)CN1C(=O)[C@H](Cc1csc2ccccc12)NC(=O)CC1CCCCC1)C(=O)C(=O)NC1CC1` [Compound 336], the Ki (on HCV NS3 protease domain; in test [1]) was more than 500 nM in each case.
Turning to `CCC[C@H](NC(=O)[C@@H]1C[C@]2(CC(c3cccc(Cl)c3)=NO2)CN1C(=O)[C@@H](NC(=O)[C@@H]1CCC(=O)N1Cc1cccs1)C(C)(C)C)C(=O)C(=O)NC1CC1` [Compound 30], the values for the Ki (at HCV NS3 protease domain; in test [1]) were 100 to 500 nM and less than 100 nM, respectively.
Consider `CCC[C@H](NC(=O)[C@@H]1C[C@]2(CC(c3cccc(Cl)c3)=NO2)CN1C(=O)[C@@H](NC(=O)CC1CCCCC1)C(C)(C)C)C(=O)C(=O)NC1CCC1` [Compound 401], for which the Ki (on HCV NS3 protease domain; in test [1]) was 100 to 500 nM each time.
As for `CCC[C@H](NC(=O)[C@@H]1C[C@]2(CC(c3ccccc3C#N)=NO2)CN1C(=O)[C@@H](NC(=O)CC1CCCCC1)C(C)(C)C)C(=O)C(=O)NC1CC1` [Compound 28], the Ki was more than 500 nM at HCV NS3 protease domain and 100 to 500 nM in test [1].
Consider `C=CCOC(=O)N[C@H](C(=O)N1C[C@@]2(CC(c3cccc(Cl)c3)=NO2)C[C@H]1C(=O)N[C@]1(C(=O)O)C[C@H]1C=C)C(C)(C)C` [Compound 460], for which the Ki (on HCV NS3 protease domain; in test [1]) was more than 500 nM throughout.
As for `C=C[C@@H]1C[C@]1(NC(=O)[C@@H]1C[C@]2(CC(c3cccc(Cl)c3)=NO2)CN1C(=O)[C@@H](NC(=O)O[C@H]1CCOC1)C(C)(C)C)C(=O)O` [Compound 269], the Ki (on HCV NS3 protease domain; in test [1]) was more than 500 nM throughout.
As for `CCC[C@H](NC(=O)[C@@H]1C[C@]2(CC(c3cccc(Cl)c3)=NO2)CN1C(=O)[C@@H](NC(=O)[C@@H]1CCC(=O)N1C(C)C)C(C)(C)C)C(=O)C(=O)NC1CC1` [Compound 241], the Ki on HCV NS3 protease domain is more than 500 nM; in test [1], 100 to 500 nM.
As to `CCC[C@H](NC(=O)[C@@H]1C[C@]2(CC(c3cccc(Cl)c3)=NO2)CN1C(=O)[C@@H](NC(=O)CC1CCCCC1)C(C)(C)C)C(=O)C(=O)N(C)CCC` [Compound 350], the Ki (at HCV NS3 protease domain; in test [1]) was more than 500 nM each time.
`CCC[C@H](NC(=O)[C@@H]1C[C@]2(CC(c3cccc(Cl)c3)=NO2)CN1C(=O)C(C)N1Cc2ccccc2C1=O)C(=O)C(=O)NC1CC1` (some centres unmarked) [Compound 574]: the Ki (on HCV NS3 protease domain; in test [1]) was more than 500 nM each time.
Turning to `CCC[C@H](NC(=O)[C@@H]1C[C@]2(CC(c3cccc(Cl)c3)=NO2)CN1C(=O)[C@@H](NC(=O)CC1CCCCC1)C(C)(C)C)C(=O)C(=O)NCCc1c[nH]c2cc(OC)ccc12` [Compound 69], the Ki was more than 500 nM at HCV NS3 protease domain and 100 to 500 nM in test [1].
On to `CCC[C@H](NC(=O)[C@@H]1C[C@]2(CC(c3cc(C)c(OC)c(C)c3)=NO2)CN1C(=O)[C@@H](NC(=O)CC1CCCCC1)C(C)(C)C)C(=O)C(=O)NC1CC1` [Compound 362], for which the Ki is 100 to 500 nM on HCV NS3 protease domain and less than 100 nM in test [1].
Turning to `CCC[C@H](NC(=O)[C@@H]1C[C@]2(CC(c3cc(Cl)c4c(c3)OCO4)=NO2)CN1C(=O)[C@@H](NC(=O)CC1CCCCC1)C(C)(C)C)C(=O)C(=O)NC1CC1` [Compound 370], the Ki at HCV NS3 protease domain is 100 to 500 nM; in test [1] it was less than 100 nM.
The matching figures for `CCC[C@H](NC(=O)[C@@H]1C[C@]2(CC(c3cc(F)c(OCC)c(Cl)c3)=NO2)CN1C(=O)[C@@H](NC(=O)CC1CCOCC1)C(C)(C)C)C(=O)C(=O)NC1CC1` [Compound 411]: 100 to 500 nM and less than 100 nM.
For the compound `CCC[C@H](NC(=O)[C@@H]1C[C@]2(CC(c3cccc(Cl)c3)=NO2)CN1C(=O)[C@@H](NC(=O)CC1CCCCC1)C(C)(C)C)C(=O)C(=O)NCCc1ccc2c(c1)OCO2` [Compound 221], the Ki (on HCV NS3 protease domain; in test [1]) was 100 to 500 nM in each case.
In the case of `CCC[C@H](NC(=O)[C@@H]1C[C@]2(CC(c3cccc(Cl)c3)=NO2)CN1C(=O)[C@@H](NC(=O)C=C1CCCCC1)C(C)(C)C)C(=O)C(=O)NC1CC1` [Compound 252], the figures for the Ki (on HCV NS3 protease domain; in test [1]) were 100 to 500 nM and less than 100 nM, respectively.
For `CC(C)(C)[C@H](NC(=O)CC1CCCCC1)C(=O)N1C[C@@]2(CC(c3cccc(Cl)c3)=NO2)C[C@H]1C(=O)NC(CC1CCC1)C(=O)C(=O)NCC(F)(F)F` (some centres unmarked) [Compound 268], the figures for the Ki (on HCV NS3 protease domain; in test [1]) were 100 to 500 nM and more than 500 nM, respectively.
In the case of `CCC[C@H](NC(=O)[C@@H]1C[C@]2(CC(c3cccc(Cl)c3)=NO2)CN1C(=O)C1CCN(c2ccccc2)C1=O)C(=O)C(=O)NC1CC1` (some centres unmarked) [Compound 65], the Ki (at HCV NS3 protease domain; in test [1]) was more than 500 nM in each case.
For `CCC[C@H](NC(=O)[C@@H]1C[C@]2(CC(c3cccc(Cl)c3)=NO2)CN1C(=O)[C@@H](NC(=O)CC1CCCCC1)[C@@H](C)c1ccccc1)C(=O)C(=O)NC1CC1` [Compound 125], the Ki (at HCV NS3 protease domain; in test [1]) was 100 to 500 nM each time.
As to `CCC[C@H](NC(=O)[C@@H]1C[C@]2(CC(c3cccc(Cl)c3)=NO2)CN1C(=O)[C@@H](NC(=O)CC1CCCCC1)C(C)(C)C)C(=O)C(=O)NC[C@H]1CCCO1` [Compound 277], the results for the Ki (on HCV NS3 protease domain; in test [1]) were more than 500 nM and 100 to 500 nM, respectively.
Consider `CN(C)C(=O)C(=O)[C@@H](CC1CCC1)NC(=O)[C@@H]1C[C@]2(CC(c3cccc(Cl)c3)=NO2)CN1C(=O)[C@@H](NC(=O)CC1CCCCC1)C(C)(C)C` [Compound 188], for which the Ki (at HCV NS3 protease domain; in test [1]) was more than 500 nM throughout.
Consider `CCC[C@H](NC(=O)[C@@H]1C[C@]2(CC(c3cccc(Cl)c3)=NO2)CN1C(=O)[C@@H](NC(=O)CC1CCCCC1)C(C)(C)C)C(=O)C(=O)N[C@H](C)c1ccccc1` [Compound 296], for which the Ki (at HCV NS3 protease domain; in test [1]) was more than 500 nM in each case.
As to `CC1(O)CCC(CC(=O)N[C@H](C(=O)N2C[C@@]3(CC(c4cccc(Cl)c4)=NO3)C[C@H]2C(=O)N[C@@H](CC2CC2)C(=O)C(N)=O)C(C)(C)C)CC1` (some centres unmarked) [Compound 5], the Ki (at HCV NS3 protease domain; in test [1]) was less than 100 nM throughout.
Turning to `C=C[C@@H]1C[C@]1(NC(=O)[C@@H]1C[C@]2(CC(c3cccc(Cl)c3)=NO2)CN1C(=O)[C@@H](NC(=O)CC1CCCCC1)C(C)(C)C)C(=O)NS(=O)(=O)NC1CC1` [Compound 115], the Ki at HCV NS3 protease domain was more than 500 nM; in test [1], 100 to 500 nM.
`CCC[C@H](NC(=O)[C@@H]1C[C@]2(CC(c3cccc(Cl)c3)=NO2)CN1C(=O)[C@@H](NC(=O)CC1CCCCC1)C(C)(C)C)C(=O)C(=O)NCC(C)C` [Compound 143]: the Ki (on HCV NS3 protease domain; in test [1]) was 100 to 500 nM in each case.
For the compound `CCC[C@H](NC(=O)[C@@H]1C[C@]2(CC(c3cccc(Cl)c3)=NO2)CN1C(=O)[C@H](NC(=O)CC1CCCCC1)C(C)(C)C)C(=O)C(=O)N(CC)CC` [Compound 113], the Ki (on HCV NS3 protease domain; in test [1]) was more than 500 nM throughout.
